Results from patent US7892755B2, “Screening method” (Takeda Pharmaceutical Company Limited, priority 2004, dated 2011).

How the values were obtained:
GPR35-GFP fusion protein = assay: Internalization of GPR35-GFP fusion protein expressed on CHO cells (Cellomics ArrayScan, MemCyto Above Threshold); format: cell-based, human; settings: CHO cells stably expressing GPR35-GFP; 3 μM, 10 μM and 30 μM
Method: The CHO cell line, in which a protein wherein GFP was fused to the C-terminus of human GPR35 was stably expressed, was established using an expression plasmid for animal cells by publicly known methods. In assaying internalization of the protein, the cells at growth phase were plated at the concentration of 40000 cells/well on a 96-well plate (Packard, View-Plate™-96, Black), and cultured overnight at 37° C. under 5% CO2. First, the cells in the well were washed with assay buffer (HBSS (Gibco/BRL) supplemented with 0.1% bovine serum albumin (BSA)). Then, 100 μl each of the assay buffers containing 3 μM, 10 μM and 30 μM DNQX and NBQX was added to each well, followed by incubation at 37° C. under conditions of 5% CO2. Subsequently, 100 μl/well of a cell fixation solution (4% paraformaldehyde-containing PBS (free of Ca/Mg)) was added to the well, which was allowed to stand at room temperature for 30 minutes. The cell fixation solution was removed. […] The intracellular localization of GPR35-GFP fusion protein was assessed using MemCyto Above Threshold (cell ratio (unit %) over a specific parameter (MemCyto Intensity Ratio) representing the ratio of membrane/cytoplasmic localization of the protein to all cells in the well), which is one of the parameters of the GPCR Signaling Assay Protocol attached to the above system.

GPR35 = GPR35 (Homo sapiens, UniProt Q9HC97, S294R); assay: MAPK phosphorylation (western blot, phospho-p44/42 MAP kinase) in human GPR35-expressed CHO cells; format: cell-based; set-up: The resulting fragment (ca. 1 kb) was introduced into vector pAKKO-111; expressed in transfected cells; settings: stimulation with 1-5 μM, 5 minutes
GPR35, sequence (Q9HC97 whole entry S294R, the tested form may be a part): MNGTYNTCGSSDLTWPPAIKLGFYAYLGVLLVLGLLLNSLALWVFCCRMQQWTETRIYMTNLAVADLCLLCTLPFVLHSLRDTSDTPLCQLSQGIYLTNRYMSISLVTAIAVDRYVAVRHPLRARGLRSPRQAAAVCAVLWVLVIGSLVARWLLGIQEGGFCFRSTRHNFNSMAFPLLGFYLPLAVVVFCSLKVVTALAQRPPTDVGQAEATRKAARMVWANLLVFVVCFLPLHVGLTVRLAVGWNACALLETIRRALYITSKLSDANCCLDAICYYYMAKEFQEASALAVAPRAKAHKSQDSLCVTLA
Method: The human GPR35-expressed CHO cells prepared in REFERENCE EXAMPLE 1 were incubated for 48 hours in a 12-well plate at 5×10^4 cells/well. MEMα (containing no nucleic acid) supplemented with 10% dialyzed FBS was used as a medium. After the medium was removed by suction, the cells were washed with 1 ml (×2) of serum-free medium and 500 μl of the serum-free medium was added thereto, followed by incubation at 37° C. for 16 hours. DNQX or NBQX was added to the cells at its optimum concentration, followed by incubation at 37° C. for 5 minutes. Immediately after the medium was removed by suction, 50 μl of Blue Loading Buffer (BioLabs) was added, the cells were lysed and taken up by pipetting. The cell lysate was destructed using a sonicator (Sono Cleaner; KAIJO DENKI) and then heat-treated at 95° C. for 5 minutes. Centrifugation (15,000 rpm, 4° C., 5 minutes) was made and the supernatant was used as a final sample.
After 10 μl of the sample was electrophoresed on 10% SDS-PAGE, the sample was transferred to a PVDF membrane by western blotting. The membrane was immersed in Block Ace (manufactured by Dainippon Pharmaceutical Co., Ltd.) and then shaken for an hour at room temperature. […] The membrane was applied to a fluorescence detector (LAS-1000; FUJI FILM) in accordance with the protocol of ECLplus Western Blotting System (Amersham Biosciences). […]

Row | Compound | activity of inducing internalization of the GPR35-GFP protein (decreased MemCyto Above Threshold value) (GPR35-GFP fusion protein) | level of phosphorylated MAP-kinase (GPR35)
1 | O=C1N=c2cc([N+](=O)[O-])c([N+](=O)[O-])cc2=NC1=O [DNQX, 6,7-dinitroquinoxaline-2,3-dione] | dose-dependent internalization | enhanced
2 | NS(=O)(=O)c1cccc2c3c(cc([N+](=O)[O-])c12)=NC(=O)C(=O)N=3 [NBQX, 6-nitro-7-sulfamoylbenzo[f]quinoxaline-2,3-dione] | dose-dependent internalization | enhanced
